From EP2459571B1, “NITROIMIDAZOOXAZINES AND THEIR USES IN ANTI-TUBERCULAR THERAPY” (priority 2009, dated 2011)
Converted amounts (≈) assume the structure as drawn.

Legend:
[1] = CD-1 mice, oral, 40 mg/kg; for t½ (h) plasma: suspension in 0.5% carboxymethylcellulose/0.08% Tween 80
[2] = tested on: M. tuberculosis bacteria in the non-replicating state; assay: microbe, parasite or virus in culture; assay type: cell-based; details: Mycobacterium tuberculosis, 264 h, low oxygen, 11 day, read-out: MIC LORA (anaerobic)
[3] = in vivo; details: mouse, po, 40 mg/kg
[4] = tested on: M. tuberculosis Erdman; set-up: species or system BALB/c mice; details: mouse, po, 100 mg/kg
[5] = tested on: replicating Mycobacterium tuberculosis; assay: MIC, microplate Alamar blue assay (MABA), 8 day; assay type: cell-based; details: 192 h, read-out: MIC MABA (aerobic)
[6] = tested on: M. tuberculosis Erdman; assay type: in vivo, BALB/c mice; details: for In vivo efficacy vs PA-824, Chronic: mouse, po, 100 mg/kg

Compound	t½ (h) plasma [1] [h]	MIC [2] [µM]	AUC [3] [µg·h/mL]	In vivo efficacy vs PA-824, Acute [4]	MIC [5] [µM]	In vivo efficacy vs PA-824, Chronic [6]	Kp [3]	Cmax plasma [1] [ng/mL]	log reduction in CFU ([6]; chronic assay, lungs, vs vehicle, oral 100 mg/kg)
O=[N+]([O-])c1cn2c(n1)OC[C@@H](OCc1ccc(-c3ccc(OC(F)(F)F)cc3)cn1)C2 [compound 7, (6S)-2-Nitro-6-({5-[4-(trifluoromethoxy)phenyl]-2-pyridinyl}methoxy)-6,7-dihydro-5H-imidazo[2,1-b][1,3]oxazine]	5.4	3.7 (≈ 1.61 µg/mL)	427	27	0.065 (≈ 0.0284 µg/mL)	0.9	–	–	–
O=[N+]([O-])c1cn2c(n1)OC[C@@H](OCc1ccc(C#Cc3ccc(OC(F)(F)F)cc3)cc1)C2 [compound 32, (6S)-2-Nitro-6-[(4-{[4-(trifluoromethoxy)phenyl]ethynyl}benzyl)oxy]-6,7-dihydro-5H-imidazo[2,1-b][1,3]oxazine]	–	> 128	–	–	0.017 (≈ 0.00781 µg/mL)	–	–	–	–
O=[N+]([O-])c1cn2c(n1)OC[C@@H](OCc1ccc(-c3ccc(OC(F)(F)F)c(F)c3)cc1)C2 [compound 2, (6S)-6-{[3'-Fluoro-4'-(trifluoromethoxy)[1,1'-biphenyl]-4-yl]methoxy}-2-nitro-6,7-dihydro-5H-imidazo[2,1-b][1,3]oxazine]	–	0.34 (≈ 0.154 µg/mL)	> 513	419	0.03 (≈ 0.0136 µg/mL)	–	> 1	–	–
O=[N+]([O-])c1cn2c(n1)OC[C@@H](OCc1ccc(-c3ccc(C(F)(F)F)cn3)cc1F)C2 [compound 14, (6S)-6-({2-Fluoro-4-[5-(trifluoromethyl)-2-pyridinyl]benzyl}oxy)-2-nitro-6,7-dihydro-5H-imidazo[2,1-b][1,3]oxazine]	–	2.3 (≈ 1.01 µg/mL)	148	52	0.055 (≈ 0.0241 µg/mL)	–	–	–	–
O=[N+]([O-])c1cn2c(n1)OC[C@@H](OCc1cnc(-c3ccc(OC(F)(F)F)cc3)cn1)C2 [compound 4, (6S)-2-nitro-6-({5-[4-(trifluoromethoxy)phenyl]-2-pyrazinyl}methoxy)-6,7-dihydro-5H-imidazo[2,1-b][1,3]oxazine]	7.2	1 (≈ 0.437 µg/mL)	> 324	167	0.023 (≈ 0.0101 µg/mL)	–	–	9600	–
O=[N+]([O-])c1cn2c(n1)OC[C@@H](OCc1ccc(-c3ccc(OC(F)(F)F)cc3)nc1)C2 [compound 6, (6S)-2-Nitro-6-({6-[4-(trifluoromethoxy)phenyl]-3-pyridinyl}methoxy)-6,7-dihydro-5H-imidazo[2,1-b][1,3]oxazine]	24	0.54 (≈ 0.236 µg/mL)	81	>89	0.05 (≈ 0.0218 µg/mL)	15	–	–	–
O=[N+]([O-])c1cn2c(n1)OC[C@@H](OCc1ccc(-c3ccc(OC(F)(F)F)c(F)c3)cn1)C2 [compound 22, (6S)-6-({5-[3-Fluoro-4-(trifluoromethoxy)phenyl]-2-pyridinyl}methoxy)-2-nitro-6,7-dihydro-5H-imidazo[2,1-b][1,3]oxazine]	8.4	1.3 (≈ 0.591 µg/mL)	155	233	0.05 (≈ 0.0227 µg/mL)	–	–	7600	–
O=[N+]([O-])c1cn2c(n1)OC[C@@H](OCc1ccc(-c3ccc(OC(F)(F)F)cc3Cl)cc1)C2 [compound 1, (6S)-6-{[2'-Chloro-4'-(trifluoromethoxy)[1,1'-biphenyl]-4-yl]methoxy}-2-nitro-6,7-dihydro-5H-imidazo[2,1-b][1,3]oxazine]	–	0.78 (≈ 0.366 µg/mL)	3360	23	0.04 (≈ 0.0188 µg/mL)	2.1	–	–	–
O=[N+]([O-])c1cn2c(n1)OC[C@@H](OCc1ccc(C#Cc3ccc(OC(F)(F)F)cc3)cn1)C2 [compound 18, (6S)-2-Nitro-6-[(5-{[4-(trifluoromethoxy)phenyl]ethynyl}-2-pyridinyl)methoxy]-6,7-dihydro-5H-imidazo[2,1-b][1,3]oxazine]	–	1.4 (≈ 0.645 µg/mL)	235	>933	0.02 (≈ 0.00921 µg/mL)	–	–	–	–
O=[N+]([O-])c1cn2c(n1)OC[C@@H](OCc1ccc(C#Cc3ccc(OC(F)(F)F)cc3)nc1)C2 [compound 33, (6S)-2-Nitro-6-[(6-{[4-(trifluoromethoxy)phenyl]ethynyl}-3-pyridinyl)methoxy]-6,7-dihydro-5H-imidazo[2,1-b][1,3]oxazine]	–	0.94 (≈ 0.433 µg/mL)	–	–	0.02 (≈ 0.00921 µg/mL)	–	–	–	–
O=[N+]([O-])c1cn2c(n1)OC[C@@H](OCc1cnn(-c3ccc(OC(F)(F)F)cc3)c1)C2 [compound 27]	–	1.8 (≈ 0.766 µg/mL)	–	–	0.15 (≈ 0.0638 µg/mL)	–	–	–	–
O=[N+]([O-])c1cn2c(n1)OC[C@@H](OCc1ccc(-c3ccc(F)cn3)cc1)C2 [compound 26, (6S)-6-{[4-(5-Fluoro-2-pyridinyl)benzyl]oxy}-2-nitro-6,7-dihydro-5H-imidazo[2,1-b][1,3]oxazine]	–	1.3 (≈ 0.481 µg/mL)	–	–	0.035 (≈ 0.013 µg/mL)	–	–	–	–
O=C(O[C@@H]1COc2nc([N+](=O)[O-])cn2C1)N1CCN(c2ccc(OC(F)(F)F)cc2)CC1 [compound 20]	10.5	1.1 (≈ 0.503 µg/mL)	169	5.2	0.13 (≈ 0.0595 µg/mL)	–	–	2500	–
O=[N+]([O-])c1cn2c(n1)OC[C@@H](OCc1cnc(-c3ccc(OC(F)(F)F)cc3)nc1)C2 [compound 16]	–	1.8 (≈ 0.787 µg/mL)	131	>1120	0.027 (≈ 0.0118 µg/mL)	–	–	–	–
O=[N+]([O-])c1cn2c(n1)OC[C@@H](OC/C=C/c1ccc(-c3ccc(OC(F)(F)F)cc3)cc1)C2 [compound 19, (6S)-2-Nitro-6-({(2E)-3-[4'-(trifluoromethoxy)[1,1'-biphenyl]-4-yl]-2-propenyl}oxy)-6,7-dihydro-5H-imidazo[2,1-b][1,3]oxazine]	–	> 64	–	–	0.063 (≈ 0.0291 µg/mL)	–	–	–	–
O=[N+]([O-])c1cn2c(n1)OC[C@@H](OCc1ccc(-c3ccc(OC(F)(F)F)c(Cl)c3)nc1)C2 [compound 28, (6S)-6-({6-[3-Chloro-4-(trifluoromethoxy)phenyl]-3-pyridinyl}methoxy)-2-nitro-6,7-dihydro-5H-imidazo[2,1-b][1,3]oxazine]	–	1 (≈ 0.471 µg/mL)	284	>933	0.017 (≈ 0.008 µg/mL)	–	–	–	–
O=[N+]([O-])c1cn2c(n1)OC[C@@H](OCc1ccc(-c3ccc(OC(F)(F)F)cc3)c(F)c1)C2 [compound 15, (6S)-6-{[2-Fluoro-4'-(trifluoromethoxy)[1,1'-biphenyl]-4-yl]methoxy}-2-nitro-6,7-dihydro-5H-imidazo[2,1-b][1,3]oxazine]	–	0.51 (≈ 0.231 µg/mL)	–	>933	0.055 (≈ 0.0249 µg/mL)	–	–	–	–
O=[N+]([O-])c1cn2c(n1)OC[C@@H](OCc1ccc(-c3ccc(OC(F)(F)F)cc3)cc1)C2 [compound 3, (6S)-2-Nitro-6-{[4'-(trifluoromethoxy)[1,1'-biphenyl]-4-yl]methoxy}-6,7-dihydro-5H-imidazo[2,1-b][1,3]oxazine]	–	1.3 (≈ 0.566 µg/mL)	218	>205	0.035 (≈ 0.0152 µg/mL)	12	–	–	–
O=[N+]([O-])c1cn2c(n1)OC[C@@H](OCc1ccc(OC(F)(F)F)cc1)C2 [PA-824, reference compound]	–	2.6 (≈ 0.934 µg/mL)	296	1.0	0.5 (≈ 0.18 µg/mL)	1.0	–	–	~ 2 log
O=[N+]([O-])c1cn2c(n1)OC[C@@H](OCc1ccc(-c3ccc(OC(F)(F)F)c(F)c3)nc1)C2 [compound 21, (6S)-6-({6-[3-Fluoro-4-(trifluoromethoxy)phenyl]-3-pyridinyl}methoxy)-2-nitro-6,7-dihydro-5H-imidazo[2,1-b][1,3]oxazine]	–	0.93 (≈ 0.423 µg/mL)	251	>840	0.025 (≈ 0.0114 µg/mL)	–	–	7000	–
O=[N+]([O-])c1cn2c(n1)OC[C@@H](OCc1ncc(-c3ccc(OC(F)(F)F)cc3)cn1)C2 [compound 29]	–	1.9 (≈ 0.831 µg/mL)	–	–	0.11 (≈ 0.0481 µg/mL)	–	–	–	–
O=[N+]([O-])c1cn2c(n1)OC[C@@H](OCc1ccc(-c3ccc(C(F)(F)F)nc3)cc1F)C2 [compound 23, (6S)-6-({2-Fluoro-4-[6-(trifluoromethyl)-3-pyridinyl]benzyl}oxy)-2-nitro-6,7-dihydro-5H-imidazo[2,1-b][1,3]oxazine]	–	0.68 (≈ 0.298 µg/mL)	55.4	8.8	0.13 (≈ 0.057 µg/mL)	–	–	–	–
O=[N+]([O-])c1cn2c(n1)OC[C@@H](Oc1ccc(-c3ccc(OC(F)(F)F)cc3)cc1)C2 [compound 13, (6S)-2-Nitro-6-{[4'-(trifluoromethoxy)[1,1'-biphenyl]-4-yl]oxy}-6,7-dihydro-5H-imidazo[2,1-b][1,3]oxazine]	–	1.3 (≈ 0.548 µg/mL)	347	8.1	0.05 (≈ 0.0211 µg/mL)	–	–	1860	–
O=[N+]([O-])c1cn2c(n1)OC[C@@H](OCc1ccc(-c3ccc(OC(F)(F)F)cc3)nn1)C2 [compound 24]	2.9	1.7 (≈ 0.743 µg/mL)	93.9	11	0.075 (≈ 0.0328 µg/mL)	–	–	–	–
O=[N+]([O-])c1cn2c(n1)OC[C@@H](OCc1ccc(-c3ccc(C(F)(F)F)nc3)cc1)C2 [compound 9, (6S)-2-Nitro-6-({4-[6-(trifluoromethyl)-3-pyridinyl]benzyl}oxy)-6,7-dihydro-5H-imidazo[2,1-b][1,3]oxazine]	–	2.1 (≈ 0.883 µg/mL)	414	15	0.03 (≈ 0.0126 µg/mL)	4.6	–	–	–
Cn1nc(-c2ccc(OC(F)(F)F)cc2)cc1CO[C@@H]1COc2nc([N+](=O)[O-])cn2C1 [compound 11]	–	0.58 (≈ 0.255 µg/mL)	92.4	12	0.06 (≈ 0.0264 µg/mL)	0.9	–	–	–
